Experimental data taken from ChEMBL document CHEMBL1144792, “Beta-carboline alkaloids from a Korean tunicate Eudistoma sp” (2008).
Values after ≈ are worked out from the molar mass of the structure shown. Active and inactive are the calls of the source. No cut-off for these calls is given here.

Tests used:
[1] = tested on: Staphylococcus epidermidis; assay: Antibacterial activity against Staphylococcus epidermidis ATCC 12228 after 24 hrs by 2-fold microtiter broth dilution method; type: functional; details: ATCC 12228, 24 h
[2] = tested on: Staphylococcus aureus; assay: Antibacterial activity against Staphylococcus aureus ATCC 6538 after 24 hrs by 2-fold microtiter broth dilution method; type: functional, organism-based
[3] = tested on: Salmonella typhimurium; assay: Antibacterial activity against Salmonella Typhimurium ATCC 14028 after 24 hrs by 2-fold microtiter broth dilution method; type: functional, organism-based; details: Salmonella enterica subsp. enterica serovar Typhimurium
[4] = tested on: Escherichia coli; assay: Antibacterial activity against Escherichia coli ATCC 11775 after 24 hrs by 2-fold microtiter broth dilution method; type: functional, organism-based
[5] = tested on: Micrococcus luteus; assay: Antibacterial activity against Micrococcus luteus ATCC 9341 after 24 hrs by 2-fold microtiter broth dilution method; type: functional, organism-based
[6] = tested on: Klebsiella pneumoniae; assay: Antibacterial activity against Klebsiella pneumoniae ATCC 4352 after 24 hrs by 2-fold microtiter broth dilution method; type: functional, organism-based
[7] = tested on: Bacillus subtilis; assay: Antibacterial activity against Bacillus subtilis ATCC 6633 after 24 hrs by 2-fold microtiter broth dilution method; type: functional; details: ATCC 6633, 24 h

Row | SMILES | MIC [1] [µg/mL] | Activity [2] | Activity [3] | Activity [4] | Activity [5] | Activity [6] | MIC [7] [µg/mL]
1 | O=C(c1ccc(O)cc1)c1nccc2c1[nH]c1ccccc12 [EUDISTOMIN Y1] | 50 (≈ 173 µM) | – | – | – | – | – | –
2 | O=C(c1cc(Br)c(O)c(Br)c1)c1nccc2c1[nH]c1ccc(Br)cc12 [EUDISTOMIN Y6] | 12.5 (≈ 23.8 µM) | inactive | inactive | inactive | inactive | inactive | 25 (≈ 47.6 µM)
3 | O=C(c1ccc(O)c(Br)c1)c1nccc2c1[nH]c1ccc(Br)cc12 [EUDISTOMIN Y4] | – | – | – | – | – | – | 200 (≈ 448 µM)
